Read-outs that look alike come from different tables or passages of the source.
Columns and labels:
[1] = biological target: T1, HIV-1 RT M41L/L210W/T215Y/R284K (Human immunodeficiency virus type 1 group M subtype B, UniProt P03366, L809W/M640L/R883K/T814Y); format: biochemical; details: M41L/L210W/T215Y/R284K RT 210 nM, 3.2 mM ATP, terminated 26-mer primer on 38-nt DNA template 30 nM
T1 construct: His6 (C); made in house; host or cells: E. coli XL1 Blue
Description: (§1) The primer 25PGA was blocked at its 3´ end with d4TTP using terminal deoxynucleotidyltransferase (Roche), and excess nucleotides were eliminated by repeated passage through a mini Quick Spin column (Roche). The blocked primer was then labeled with [γ-^32P]ATP and T4 polynucleotide kinase and annealed to the DNA template D38, in order to obtain the template-primer D38/25PGA^d4T, used in the excision reactions. […] For this purpose, we preincubated the template-primer D38/^32P]25PGA (4.6 μM) with HIV-1BH10 RT (4 μM) in 65 μl of 50 mM Hepes pH 7.0 buffer, containing 15 mM NaCl, 15 mM magnesium acetate, 130 mM potassium acetate, 1 mM dithiothreitol, and 5% polyethylene glycol for 10 minutes at 37°C. Then, 35 μl of 6 mM AZTTP (diluted in the preincubation buffer) were added and incubated for another 30 minutes at 37°C to ensure that the primer was blocked completely. The RT was inactivated by heating the mixture for 10 minutes at 90°C. After slowly cooling the sample at room temperature, it was passaged several times through a mini Quick Spin column (Roche) to eliminate the free AZTTP. […] The excision of d4T monophosphate (d4TMP) from D38/25PGA^d4T was determined under single turnover conditions, as previously described.

WT HIV-1 RT = biological target: T2, WT HIV-1 RT (Human immunodeficiency virus type 1 group M subtype B, UniProt P03366); format: biochemical
T2 construct: His6 (C); made in house; host or cells: E. coli XL1 Blue
Description: as §1

[2] = biological target: T3, HIV-1 RT M41L/L210W/T215Y (Human immunodeficiency virus type 1 group M subtype B, UniProt P03366, L809W/M640L/T814Y); format: biochemical; details: M41L/L210W/T215Y RT 210 nM, 3.2 mM ATP, terminated 26-mer primer on 38-nt DNA template 30 nM
T3 construct: His6 (C); made in house; host or cells: E. coli XL1 Blue
Description: as §1

HIV-1 RT R284K = biological target: T4, HIV-1 RT R284K (Human immunodeficiency virus type 1 group M subtype B, UniProt P03366, R883K); test: Kinetics of ATP-dependent excision from DNA/DNA template-primers (single turnover); format: biochemical; details: R284K RT 210 nM, 3.2 mM ATP, terminated 26-mer primer on 38-nt DNA template 30 nM
T4 construct: His6 (C); made in house; host or cells: E. coli XL1 Blue
Description: as §1

[3] = tested on: HIV-1 construct with RT M41L/L210W/T215Y/R284K; test: Phenotypic drug susceptibility of recombinant HIV-1 in MT-4 cells (tetrazolium-based colorimetric method); format: cell-based
Description: (§2) Site-directed mutagenesis was carried out with the Quik-Change Site-Directed Mutagenesis kit (Stratagene) by following the manufacturer’s instructions, and using plasmids p66RTB [64] or p66RTB(LY) as templates. The plasmid p66RTB contains the nucleotide sequence encoding for the 66-kDa subunit of HIV-1BH10 RT, and p66RTB(LY) encodes a p66 derivative with thymidine analogue resistance mutations M41L and T215Y. […] All introduced mutations were confirmed by DNA sequencing. Recombinant HIV-1 was obtained as previously described. […] MT-4 cells were used to propagate the recombinant virus. The nucleotide sequence of the RT-coding region was fully determined in order to check for reversions or undesired mutations. MT-4 cells and the deleted HXB2-D clone were obtained from the AIDS Reagent Program (Medical Research Council).
(§3) Viable cells at different drug concentrations were quantified with a tetrazolium-based colorimetric method. Replication kinetics of wild-type and mutant viruses were assayed by infecting peripheral blood mononuclear cells (PBMCs) (mixed from two healthy donors), previously stimulated with phytohemagglutinin and interleukin 2 [26]. In these assays, viral replication rates were obtained from the amounts of HIV-1 p24^Gag antigen produced during the exponential phase of viral growth, as described previously. Growth competition assays in MT-4 cells were carried out as previously described, in the absence and in the presence of tenofovir disoproxil fumarate at concentrations ranging from 5 to 80 nM. A multiplicity of infection of 0.001 was used and competing viruses were mixed at a 50:50 ratio. RT inhibitors were obtained from the NIH AIDS Research and Reference Reagent Program.

[4] = tested on: HIV-1 construct with RT M41L/L210W/T215Y; test: as above; format: cell-based
Description: as §2, §3

[5] = tested on: HIV-1 construct with RT R284K; test: as above; format: cell-based
Description: as §2, §3

[6] = tested on: wild-type HXB2 virus carrying the RT sequence of BH10; test: as above; format: cell-based; details: average ± SD of at least three tests
Description: as §2, §3

[7] = biological target: T1, HIV-1 RT M41L/L210W/T215Y/R284K; test: Inhibition constants under steady-state nucleotide incorporation conditions; format: biochemical
Description: (§4) RTs were expressed in E. coli XL1 Blue and purified as p66/p51 heterodimers by ionic exchange, followed by immobilized metal affinity chromatography on Ni^2+-nitriloacetic acid-agarose. The p66 subunit was obtained with a His6 tag at its C-terminal end to facilitate its purification by metal affinity chromatography. Purity of the enzymes was assessed by SDS-polyacrylamide gel electrophoresis and RT concentrations were determined by active site titration as described.
(§5) Nucleotide incorporation reactions under steady-state conditions were carried out as previously described. However, in the preincubation buffer, active RT and template-primers D38/25PGA or D38T/25PGA were present at concentrations of 7–20 nM and 60 nM, respectively. Elongation rates were determined with dTTP concentrations ranging from 0.05 to 20 μM or with dATP concentrations ranging from 12 nM to 10 μM, using reaction volumes of 20 μl. Catalytic constants kcat and Km were determined after fitting the elongation data to the Michaelis–Menten equation as described. Inhibition constants (Ki) for AZTTP and tenofovir-DP were determined under the conditions used for obtaining the catalytic constants of dTTP and dATP incorporation, respectively. In order to distinguish between dTTP and AZTTP, elongation reactions were carried out under conditions that allowed the incorporation of two nucleotides (i.e. T at position +1 and A at position +2). For this purpose dATP was supplied at 1 μM in all assays. The competition between tenofovir-DP and dATP was analyzed with template-primer D38T/25PGA. Assays were carried out with variable concentrations of dATP (as indicated above) and 2 μM dTTP to facilitate further extension of the primer when the inhibitor was not incorporated at position +1 of the DNA primer. Data were analyzed by using Lineweaver-Burk plots. Nucleotide incorporation reactions under pre-steady-state conditions were carried out with template-primer D38/25PGA, as described.

WT HIV-1 RT (BH10) [8] = biological target: T5, WT HIV-1 RT (BH10) (Human immunodeficiency virus type 1 group M subtype B, UniProt P03366); test: as above; format: biochemical
T5 construct: His6 (C); made in house; host or cells: E. coli XL1 Blue
Description: as §4, §5

[9] = biological target: T3, HIV-1 RT M41L/L210W/T215Y; test: as above; format: biochemical
Description: as §4, §5

[10] = biological target: T1, HIV-1 RT M41L/L210W/T215Y/R284K; test: Single-nucleotide incorporation under pre-steady-state conditions; format: biochemical; details: D38/25PGA, 80 μM dTTP
Description: as §5, with “Nucleotide incorporation reactions under pre-steady-state conditions were carried out with template-primer D38/25PGA, as described.” left out

[11] = biological target: T3, HIV-1 RT M41L/L210W/T215Y; test: as above; format: biochemical; details: D38/25PGA, 80 μM dTTP
Description: as §5, with “Nucleotide incorporation reactions under pre-steady-state conditions were carried out with template-primer D38/25PGA, as described.” left out

[12] = biological target: T1, HIV-1 RT M41L/L210W/T215Y/R284K; test: Steady-state kinetics of nucleotide incorporation; format: biochemical; details: D38/25PGA for dTTP, D38T/25PGA for dATP
Description: as §4, §5

WT HIV-1 RT (BH10) [13] = biological target: T5, WT HIV-1 RT (BH10); test: Steady-state kinetics of nucleotide incorporation; format: biochemical; details: D38/25PGA for dTTP, D38T/25PGA for dATP
Description: as §4, §5

[14] = biological target: T3, HIV-1 RT M41L/L210W/T215Y; test: Steady-state kinetics of nucleotide incorporation; format: biochemical; details: D38/25PGA for dTTP, D38T/25PGA for dATP
Description: as §4, §5

[15] = Human immunodeficiency virus 1, MT4, average ± SD of at least three tests
[16] = Human immunodeficiency virus 1, HXB2, MT4, WT virus

## Cc1cn([C@H]2C[C@H](N=[N+]=[N-])[C@@H](COP(=O)(O)O)O2)c(=O)[nH]c1=O [AZTMP]
[1]
  kobs of ATP-dependent excision reaction: 0.0364 ± 0.00308 min⁻¹
WT HIV-1 RT; WT RT 210 nM, 3.2 mM ATP, terminated 26-mer primer on 38-nt DNA template 30 nM
  kobs of ATP-dependent excision reaction: 0.00282 ± 0.000148 min⁻¹
[2]
  kobs of ATP-dependent excision reaction: 0.0469 ± 0.00169 min⁻¹
HIV-1 RT R284K
  kobs of ATP-dependent excision reaction: 0.00242 ± 0.000122 min⁻¹

## Cc1cn([C@H]2C=C[C@@H](CO)O2)c(=O)[nH]c1=O [d4T, 2´,3´-didehydro-2´,3´-dideoxythymidine]
[3]
  fold increase in IC50 relative to the wild-type HXB2 virus control: 1.0
[3]; [15]
  IC50: 287 ± 84.5 nM
[4]
  fold increase in IC50 relative to the wild-type HXB2 virus control: 0.8
[4]; [15]
  IC50: 217 ± 75.5 nM
[5]
  fold increase in IC50 relative to the wild-type HXB2 virus control: 0.5
[5]; [15]
  IC50: 130 ± 24.8 nM
[6]; [16]
  IC50: 276 ± 90.5 nM

## CC(Cn1cnc2c(N)ncnc21)OCP(=O)(O)OP(=O)(O)OP(=O)(O)O (stereo in doubt) [Tenofovir-DP, tenofovir diphosphate]
[7]; M41L/L210W/T215Y/R284K RT, competition with dATP, template-primer D38T/25PGA, read-out: Ki(Tenofovir-DP)
  Ki: 2540 ± 550 nM
WT HIV-1 RT (BH10) [8]; competition with dATP, template-primer D38T/25PGA, read-out: Ki(Tenofovir-DP)
  Ki: 3590 ± 260 nM
[9]; M41L/L210W/T215Y RT, competition with dATP, template-primer D38T/25PGA, read-out: Ki(Tenofovir-DP)
  Ki: 2630 ± 640 nM

## Cc1cn([C@H]2C[C@H](O)[C@@H](COP(=O)(O)OP(=O)(O)OP(=O)(O)O)O2)c(=O)[nH]c1=O [dTTP]
[10]
  nucleotide incorporation rate (kobs): 38.8 ± 9.4 s⁻¹
[11]
  nucleotide incorporation rate (kobs): 21.5 ± 4.4 s⁻¹
[12]
  Km: 0.184 ± 0.0061 µM
  kcat: 0.0943 ± 0.00383 s⁻¹
WT HIV-1 RT (BH10) [13]
  Km: 0.108 ± 0.0129 µM
  kcat: 0.0523 ± 0.00917 s⁻¹
[14]
  Km: 0.117 ± 0.0219 µM
  kcat: 0.0588 ± 0.0015 s⁻¹

## Nc1nc(=O)n([C@@H]2CS[C@H](CO)O2)cc1F [Emtricitabine]
[3]
  fold increase in IC50 relative to the wild-type HXB2 virus control: 2.0
[3]; [15]
  IC50: 295 ± 93.7 nM
[4]
  fold increase in IC50 relative to the wild-type HXB2 virus control: 1.6
[4]; [15]
  IC50: 227 ± 113 nM
[5]
  fold increase in IC50 relative to the wild-type HXB2 virus control: 0.7
[5]; [15]
  IC50: 104 ± 81.5 nM
[6]; [16]
  IC50: 144 ± 69.9 nM

## CC(C)OC(=O)OCOP(=O)(CO[C@H](C)Cn1cnc2c(N)ncnc21)OCOC(=O)OC(C)C.O=C(O)/C=C/C(=O)O [Tenofovir, tenofovir disoproxil fumarate]
[3]
  fold increase in IC50 relative to the wild-type HXB2 virus control: 2.7
[3]; M41L/L210W/T215Y/R284K virus, average ± SD of at least three tests
  IC50: 18.1 ± 4.4 nM
[4]
  fold increase in IC50 relative to the wild-type HXB2 virus control: 1.6
[4]; M41L/L210W/T215Y virus, average ± SD of at least three tests
  IC50: 11 ± 4.6 nM
[5]
  fold increase in IC50 relative to the wild-type HXB2 virus control: 1.8
[5]; R284K virus, average ± SD of at least three tests
  IC50: 12.1 ± 5.3 nM
[6]; WT virus
  IC50: 6.7 ± 2.2 nM

## Cc1cn([C@H]2C=C[C@@H](COP(=O)(O)O)O2)c(=O)[nH]c1=O [d4TMP, d4T monophosphate]
[1]
  kobs of ATP-dependent excision reaction: 0.037 ± 0.00229 min⁻¹
WT HIV-1 RT
  kobs of ATP-dependent excision reaction: 0.00337 ± 0.000193 min⁻¹
[2]
  kobs of ATP-dependent excision reaction: 0.0372 ± 0.00158 min⁻¹
HIV-1 RT R284K
  kobs of ATP-dependent excision reaction: 0.00262 ± 0.000142 min⁻¹

## Nc1ncnc2c1ncn2[C@H]1C[C@H](O)[C@@H](COP(=O)(O)OP(=O)(O)OP(=O)(O)O)O1 [dATP]
[12]
  Km: 0.0159 ± 0.0025 µM
  kcat: 0.1682 ± 0.0245 s⁻¹
WT HIV-1 RT (BH10) [13]
  Km: 0.0258 ± 0.0067 µM
  kcat: 0.0645 ± 0.0165 s⁻¹
[14]
  Km: 0.0321 ± 0.0096 µM
  kcat: 0.095 ± 0.0145 s⁻¹

## Cc1cn([C@H]2C[C@H](N=[N+]=[N-])[C@@H](CO[P@](=O)(O)O[P@](=O)(O)OP(=O)(O)O)O2)c(=O)[nH]c1=O [AZTTP]
[7]
  Ki: 2320 ± 740 nM
WT HIV-1 RT (BH10) [8]; competition with dTTP, template-primer D38/25PGA, read-out: Ki(AZTTP)
  Ki: 2100 ± 380 nM
[9]
  Ki: 2180 ± 170 nM
